Two compounds from patent US11965159B2, “Compositions and methods for regulating proteins and nucleic acids activities” (THE BROAD INSTITUTE, INC., priority 2019, dated 2024) can be followed below.

Each structure is given as a SMILES string. “Also recorded” adds a separate entry of the source.

In assay [1] the target is SpCas9 (Streptococcus pyogenes serotype M1, UniProt Q99ZW2). Briefly: mCherry-GFP NHEJ assay. The format is cell-based. Also on record: host or cells: U2OS.eGFP-PEST. To be noted: 2-10 μM, 24 h. The method, then: NHEJ assay. Approximately 8,000 cells/well were plated in a 96-well format 24 h before transiently transfected with a total 100 ng of DN66 (mCherry-TAG-GFP reporter) and DN78 (SpCas9 and gRNA) plasmids (1:1) using Lipofectamine™ 2000 (Life Technologies™) 3. Transfected cells were allowed to grow in the indicated amount of compound or DMSO for 24 h. Cells were then fixed using 4% paraformaldehyde and imaged with the HCS NuclearMask™ Blue Stain (Life Technologies™) as the nuclear counter-staining agent. Imaging was performed with an IXM 137204 ImageXpress® Automated High Content Microscope (Molecular Devices™) at 20× magnification under three excitation channels (blue, green and red) with 9 acquiring sites per well. Images were analyzed in the MetaXpress® software to determine the % NHEJ and the data were plotted using GraphPad Prism 6. The Z′-value was calculated following the formula:
NHEJ assay. Approximately 8,000 cells/well were plated in a 96-well format 24 h before transiently transfected with a total 100 ng of DN66 (mCherry-TAG-GFP reporter) and DN78 (SpCas9 and gRNA) plasmids (1:1) using Lipofectamine™ 2000 (Life Technologies™)^3. […] Images were analyzed in the MetaXpress® software to determine the % NHEJ and the data were plotted using GraphPad Prism 6. The Z′-value was calculated following the formula: […]

Assay [2] deals with T1, dCas9-cytidine deaminase conjugate (BE3) (UniProt P14739+P38483+Q99ZW2, D10A).
T1 construct: His6 (N); made in house; host or cells: E. coli BL21 Star (DE3); purified protein lipofected as BE3:gRNA RNP into HEK293T cells
Put plainly: BE3 base-editing of EMX1 gene in HEK293T cells. Format: cell-based. The note with it: 1.25-20 μM, 72 h; BE3:gRNA ribonucleoprotein delivery. The method, then:
Protein transfection of base editor BE3 into HEK293T cells. HEK293T cells were seeded on 48-well BioCoat® poly-D-lysine plates (Corning®) in 250 μL of antibiotic-free medium and transfected at ˜70% confluency. Prior to protein transfection, cells were incubated with 2 μL of DMSO-suspended BRD7087 or BRD5779 at the indicated concentration for 2-3 hours. BE3 protein was incubated with 1.1× molar excess of EMX1-targeting sgRNA at a final concentration ratio of 200 nM: 220 nM (based on a total well volume of 275 μL). The complex was mixed with 0.2 μL of compound for five minutes, incubated with 1.5 μL Lipofectamine™ 2000 (THERMOFISHER) and transfected according to the manufacturer's protocol plasmid delivery. […]
Purifications and sequencing of genomic DNA. […] Barcoded samples were pooled and purified by gel extraction (QIAGEN) before quantification using the Qubit™ dsDNA HS Kit (THERMOFISHER) and qPCR (KAPA BioSystems) according to the manufacturer's instructions. Sequencing of pooled samples was performed using a single-end read from 260 to 300 bases on the MiSeq™ ([…]) according to the manufacturer's instructions.
Analysis of base-edited sequences. Nucleotide frequencies were analyzed using a previously described MATLAB script 5. Briefly, the reads were aligned to the reference sequence via the Smith-Waterman algorithm. […]

SpCas9, sequence (Q99ZW2 whole entry): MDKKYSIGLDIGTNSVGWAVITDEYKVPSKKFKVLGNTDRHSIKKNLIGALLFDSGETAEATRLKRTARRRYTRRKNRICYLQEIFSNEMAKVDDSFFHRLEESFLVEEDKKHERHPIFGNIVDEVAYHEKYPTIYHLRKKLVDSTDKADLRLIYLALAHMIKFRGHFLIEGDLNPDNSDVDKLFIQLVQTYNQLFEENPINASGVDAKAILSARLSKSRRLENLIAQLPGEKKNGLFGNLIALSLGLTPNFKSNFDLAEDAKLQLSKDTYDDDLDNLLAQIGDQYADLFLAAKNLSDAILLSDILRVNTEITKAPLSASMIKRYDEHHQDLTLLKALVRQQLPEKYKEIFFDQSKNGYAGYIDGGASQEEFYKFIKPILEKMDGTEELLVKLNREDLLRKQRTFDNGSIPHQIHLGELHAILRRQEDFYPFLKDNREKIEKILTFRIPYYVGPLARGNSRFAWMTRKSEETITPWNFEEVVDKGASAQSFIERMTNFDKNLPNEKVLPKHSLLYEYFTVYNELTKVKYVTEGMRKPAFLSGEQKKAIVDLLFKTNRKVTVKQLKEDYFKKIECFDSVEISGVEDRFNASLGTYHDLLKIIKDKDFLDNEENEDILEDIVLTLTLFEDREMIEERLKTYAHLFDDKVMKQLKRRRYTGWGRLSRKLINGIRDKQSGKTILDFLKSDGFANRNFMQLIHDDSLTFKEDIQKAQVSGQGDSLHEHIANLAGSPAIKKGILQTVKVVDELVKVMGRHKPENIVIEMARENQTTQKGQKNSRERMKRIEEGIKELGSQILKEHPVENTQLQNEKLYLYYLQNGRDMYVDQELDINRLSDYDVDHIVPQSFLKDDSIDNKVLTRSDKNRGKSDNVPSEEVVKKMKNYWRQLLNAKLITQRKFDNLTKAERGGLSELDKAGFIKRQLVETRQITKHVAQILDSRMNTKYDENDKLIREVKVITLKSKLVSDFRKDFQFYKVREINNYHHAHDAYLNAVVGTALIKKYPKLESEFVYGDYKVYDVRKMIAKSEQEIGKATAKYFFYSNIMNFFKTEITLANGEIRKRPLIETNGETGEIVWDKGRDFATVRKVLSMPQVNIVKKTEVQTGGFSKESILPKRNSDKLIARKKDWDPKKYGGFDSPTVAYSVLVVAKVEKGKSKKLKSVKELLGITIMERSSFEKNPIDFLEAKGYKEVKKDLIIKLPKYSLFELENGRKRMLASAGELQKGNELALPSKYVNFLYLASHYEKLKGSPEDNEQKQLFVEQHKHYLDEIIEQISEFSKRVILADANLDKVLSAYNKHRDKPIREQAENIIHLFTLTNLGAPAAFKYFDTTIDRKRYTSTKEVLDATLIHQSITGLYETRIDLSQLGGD

As to `OC[C@H]1Nc2ccc(-c3cccc(F)c3)cc2[C@H]2[C@@H]1CCN2Cc1ccncc1` [BRD7087, ((3aR,4S,9bR)-8-(3-Fluorophenyl)-1-(pyridin-4-ylmethyl)-2,3,3a,4,5,9b-hexahydro-1H-pyrrolo[3,2-c]quinolin-4-yl)methanol], the “inhibition of SpCas9-mediated NHEJ” value in assay [1] was “active; also recorded: Dose-dependent inhibition of SpCas9-mediated NHEJ”. Also, the “inhibition of BE3-mediated base-editing (C→T conversion, EMX1)” value in assay [2] was “efficient and dose-dependent inhibition”.
Turning to `COc1ccc(-c2ccc3c(c2)[C@H]2[C@H](CCN2Cc2ccncc2)[C@@H](CO)N3)cc1` [BRD5779, ((3aR,4S,9bR)-8-(4-Methoxyphenyl)-1-(pyridin-4-ylmethyl)-2,3,3a,4,5,9b-hexahydro-1H-pyrrolo[3,2-c]quinolin-4-yl)methanol], the “inhibition of SpCas9-mediated NHEJ” value in assay [1] was “active; also recorded: Dose-dependent inhibition of SpCas9-mediated NHEJ”. Besides, in assay [2], the “inhibition of BE3-mediated base-editing (C→T conversion, EMX1)” value was “efficient and dose-dependent inhibition”.
